# The NIST ThermoML archive (doi:10.1021/je060271a)
# Numbers after ± are expanded uncertainties.
# Details: 323.14 K, Liquid, Vibrating tube method
compound,measurement,setting,value
CCCCCCC(=O)OCC(COC(=O)CCCCCC)(COC(=O)CCCCCC)COC(=O)CCCCCC [pentaerythritol tetraheptanoate],mass density,141.6 kPa,955.8 ± 1.2 kg/m3
same,mass density,142.1 kPa,955.7 ± 1.2 kg/m3
same,mass density,142.7 kPa,955.7 ± 1.2 kg/m3
same,mass density,143.5 kPa,955.7 ± 1.2 kg/m3
same,mass density,146.5 kPa,955.7 ± 1.2 kg/m3
same,mass density,148.2 kPa,955.7 ± 1.2 kg/m3
same,mass density,149.1 kPa,955.7 ± 1.2 kg/m3
same,mass density,149.8 kPa,955.7 ± 1.2 kg/m3
same,mass density,150.7 kPa,955.7 ± 1.2 kg/m3
same,mass density,151.7 kPa,955.7 ± 1.2 kg/m3
same,mass density,160.6 kPa,955.8 ± 1.2 kg/m3
same,mass density,191.9 kPa,955.7 ± 1.2 kg/m3
same,mass density,198.5 kPa,955.7 ± 1.2 kg/m3
same,mass density,199.7 kPa,955.7 ± 1.2 kg/m3
same,mass density,201.6 kPa,955.8 ± 1.2 kg/m3
same,mass density,203.3 kPa,955.6 ± 1.2 kg/m3
same,mass density,206.3 kPa,955.6 ± 1.2 kg/m3
same,mass density,208.7 kPa,955.6 ± 1.2 kg/m3
same,mass density,211.5 kPa,955.7 ± 1.2 kg/m3
same,mass density,213.8 kPa,955.8 ± 1.2 kg/m3
same,mass density,216.2 kPa,955.6 ± 1.2 kg/m3
same,mass density,219 kPa,955.8 ± 1.2 kg/m3
same,mass density,222.1 kPa,955.7 ± 1.2 kg/m3
same,mass density,224.9 kPa,955.7 ± 1.2 kg/m3
same,mass density,228.5 kPa,955.7 ± 1.2 kg/m3
same,mass density,231.8 kPa,955.6 ± 1.2 kg/m3
same,mass density,234.6 kPa,955.7 ± 1.2 kg/m3
same,mass density,237.8 kPa,955.7 ± 1.2 kg/m3
same,mass density,248.7 kPa,955.8 ± 1.2 kg/m3
same,mass density,252.3 kPa,955.7 ± 1.2 kg/m3
same,mass density,256.9 kPa,955.6 ± 1.2 kg/m3
same,mass density,260.9 kPa,955.8 ± 1.2 kg/m3
same,mass density,269.9 kPa,955.8 ± 1.2 kg/m3
same,mass density,274.2 kPa,955.7 ± 1.2 kg/m3
same,mass density,279.5 kPa,955.8 ± 1.2 kg/m3
same,mass density,284.3 kPa,955.8 ± 1.2 kg/m3
same,mass density,289.2 kPa,955.7 ± 1.2 kg/m3
same,mass density,294.6 kPa,955.8 ± 1.2 kg/m3
same,mass density,300.8 kPa,955.7 ± 1.2 kg/m3
same,mass density,306.2 kPa,955.9 ± 1.2 kg/m3
same,mass density,313.2 kPa,955.9 ± 1.2 kg/m3
same,mass density,325.7 kPa,955.8 ± 1.2 kg/m3
same,mass density,332.1 kPa,955.9 ± 1.2 kg/m3
same,mass density,355.4 kPa,955.9 ± 1.2 kg/m3
same,mass density,382.3 kPa,955.9 ± 1.2 kg/m3
same,mass density,391.6 kPa,956 ± 1.2 kg/m3
same,mass density,402.9 kPa,955.9 ± 1.2 kg/m3
same,mass density,412.9 kPa,955.8 ± 1.2 kg/m3
same,mass density,423.9 kPa,955.8 ± 1.2 kg/m3
same,mass density,437.3 kPa,955.8 ± 1.2 kg/m3
same,mass density,478.1 kPa,956 ± 1.2 kg/m3
same,mass density,585.3 kPa,955.9 ± 1.2 kg/m3
same,mass density,606 kPa,955.9 ± 1.2 kg/m3
same,mass density,632.9 kPa,956 ± 1.2 kg/m3
same,mass density,657.4 kPa,955.9 ± 1.2 kg/m3
same,mass density,683.2 kPa,956 ± 1.2 kg/m3
same,mass density,747.4 kPa,956.1 ± 1.2 kg/m3
same,mass density,859.8 kPa,956 ± 1.2 kg/m3
same,mass density,901.9 kPa,956.1 ± 1.2 kg/m3
same,mass density,946 kPa,956.2 ± 1.2 kg/m3
same,mass density,1003.2 kPa,956.3 ± 1.2 kg/m3
same,mass density,1051.3 kPa,956.3 ± 1.2 kg/m3
same,mass density,1084.8 kPa,956.4 ± 1.2 kg/m3
same,mass density,1163.8 kPa,956.3 ± 1.2 kg/m3
same,mass density,1174 kPa,956.4 ± 1.2 kg/m3
same,mass density,1215.6 kPa,956.4 ± 1.2 kg/m3
same,mass density,1248.5 kPa,956.5 ± 1.2 kg/m3
same,mass density,1269 kPa,956.4 ± 1.2 kg/m3
same,mass density,1336.1 kPa,956.5 ± 1.2 kg/m3
same,mass density,1342 kPa,956.5 ± 1.2 kg/m3
same,mass density,1347.9 kPa,956.5 ± 1.2 kg/m3
same,mass density,1355 kPa,956.5 ± 1.2 kg/m3
same,mass density,1360.7 kPa,956.6 ± 1.2 kg/m3
same,mass density,1366.8 kPa,956.5 ± 1.2 kg/m3
same,mass density,1374.4 kPa,956.5 ± 1.2 kg/m3
same,mass density,1380.5 kPa,956.5 ± 1.2 kg/m3
same,mass density,1386.8 kPa,956.6 ± 1.2 kg/m3
same,mass density,1393.9 kPa,956.6 ± 1.2 kg/m3
same,mass density,1400.3 kPa,956.5 ± 1.2 kg/m3
same,mass density,1406.6 kPa,956.7 ± 1.2 kg/m3
same,mass density,1414.7 kPa,956.6 ± 1.2 kg/m3
same,mass density,1515.9 kPa,956.7 ± 1.2 kg/m3
same,mass density,1530.9 kPa,956.7 ± 1.2 kg/m3
same,mass density,1537.8 kPa,956.7 ± 1.2 kg/m3
same,mass density,1547 kPa,956.7 ± 1.2 kg/m3
same,mass density,1554.5 kPa,956.7 ± 1.2 kg/m3
same,mass density,1561.9 kPa,956.7 ± 1.2 kg/m3
same,mass density,1571 kPa,956.8 ± 1.2 kg/m3
same,mass density,1578.6 kPa,956.7 ± 1.2 kg/m3
same,mass density,1586.4 kPa,956.6 ± 1.2 kg/m3
same,mass density,1596.1 kPa,956.6 ± 1.2 kg/m3
same,mass density,1604 kPa,956.7 ± 1.2 kg/m3
same,mass density,1612.1 kPa,956.7 ± 1.2 kg/m3
same,mass density,1637.6 kPa,956.7 ± 1.2 kg/m3
same,mass density,1645.8 kPa,956.8 ± 1.2 kg/m3
same,mass density,1655.5 kPa,956.8 ± 1.2 kg/m3
same,mass density,1664.2 kPa,956.7 ± 1.2 kg/m3
same,mass density,1672.2 kPa,956.7 ± 1.2 kg/m3
same,mass density,1680.7 kPa,956.8 ± 1.2 kg/m3
same,mass density,1690.9 kPa,956.8 ± 1.2 kg/m3
same,mass density,1699.8 kPa,956.8 ± 1.2 kg/m3
same,mass density,1708.3 kPa,956.8 ± 1.2 kg/m3
same,mass density,1756.9 kPa,956.8 ± 1.2 kg/m3
same,mass density,1766.2 kPa,956.7 ± 1.2 kg/m3
same,mass density,1784.8 kPa,956.7 ± 1.2 kg/m3
same,mass density,1795.8 kPa,956.8 ± 1.2 kg/m3
same,mass density,1805 kPa,956.9 ± 1.2 kg/m3
same,mass density,1816.8 kPa,956.8 ± 1.2 kg/m3
same,mass density,1826.5 kPa,956.8 ± 1.2 kg/m3
same,mass density,1836.5 kPa,956.8 ± 1.2 kg/m3
same,mass density,1847 kPa,956.8 ± 1.2 kg/m3
same,mass density,1857.2 kPa,957 ± 1.2 kg/m3
